From patent publication US20060223837A1 (priority 2005, published 2006)

Key:
human VR1 [1] = target: T1, human VR1 (Homo sapiens, UniProt Q8NER1); experiment: Human VR1 [3H]RTX binding assay; details: for h Binding % I (1 μM) / inhibition at 1 µM: inhibition of [3H]RTX binding at 1 μM; for Ki: [3H]RTX binding, HEK293 membranes; for inhibition at 1 µM: read-out: h Binding % I (1 μM)
T1 construct: expressed in transfected cells; host or cells: HEK293
Outline: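 Membranes from human VR1-transfected HEK293 cells (~120 μg protein/ml) incubated with [3H]RTX in HEPES pH 7.4 with 0.25 mg/mL BSA, 37 C, 60 min. Bound counts by scintillation after α-acid glycoprotein and centrifugation; nonspecific defined with 200 nM unlabelled RTX. Ki from duplicate means.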

human VR1 [2] = target: T1, human VR1; experiment: Human VR1 functional assay (FLIPR intracellular Ca2+); format: cell-based; details: for % Response Relative to EC80 of Capsaicin (12 μM) / Emax at 12 µM / Emax at 6 µM: agonist response; for IC50: antagonism of capsaicin-induced Ca2+ increase, read-out: h IC50; for inhibition at 5 µM: read-out: h % I (5 μM); for inhibition at 1 µM: read-out: h % I (1 μM); for Emax at 12 µM: read-out: % Response Relative to EC80 of Capsaicin (12 μM); for Emax at 6 µM: read-out: % Response Relative to EC80 of Capsaicin (6 μM)
Outline: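 HEK293 cells expressing human VR1, loaded with Calcium 3 dye, were exposed to test compounds for 5 min while FLIPR recorded intracellular Ca2+, then challenged with capsaicin at ~80% maximal response ([…]). EC50 or IC50 came from dose-response curves on quadruplicate-well means.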

[3] = inhibition of capsaicin response
[4] = inhibition of capsaicin response, 10 μM

T1 sequence (Q8NER1 whole entry): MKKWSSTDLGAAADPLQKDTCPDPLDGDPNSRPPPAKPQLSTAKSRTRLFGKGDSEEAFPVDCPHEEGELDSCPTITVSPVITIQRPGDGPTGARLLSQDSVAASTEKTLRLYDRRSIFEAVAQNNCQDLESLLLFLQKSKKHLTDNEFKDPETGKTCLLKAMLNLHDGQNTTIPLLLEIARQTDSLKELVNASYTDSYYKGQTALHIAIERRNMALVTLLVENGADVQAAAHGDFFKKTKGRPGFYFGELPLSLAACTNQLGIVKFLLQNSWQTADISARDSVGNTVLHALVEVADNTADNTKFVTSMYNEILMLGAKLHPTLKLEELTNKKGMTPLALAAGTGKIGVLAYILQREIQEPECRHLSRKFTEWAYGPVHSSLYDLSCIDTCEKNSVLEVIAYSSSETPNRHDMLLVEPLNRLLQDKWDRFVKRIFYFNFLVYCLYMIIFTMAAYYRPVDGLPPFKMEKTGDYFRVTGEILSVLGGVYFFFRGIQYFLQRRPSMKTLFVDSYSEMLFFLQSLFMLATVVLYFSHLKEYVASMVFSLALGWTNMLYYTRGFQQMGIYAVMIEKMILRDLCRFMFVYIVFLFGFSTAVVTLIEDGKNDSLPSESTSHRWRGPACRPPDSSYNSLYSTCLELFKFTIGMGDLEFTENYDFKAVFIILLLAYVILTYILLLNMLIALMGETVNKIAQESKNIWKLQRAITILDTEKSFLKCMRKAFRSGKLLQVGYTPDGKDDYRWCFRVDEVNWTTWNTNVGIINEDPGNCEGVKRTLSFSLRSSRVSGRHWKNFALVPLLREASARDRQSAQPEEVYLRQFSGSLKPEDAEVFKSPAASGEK

## CC(C)(C)c1ccc(CCC(=O)Nc2ccc(-c3ccccc3O)nc2)cc1 [Cpd 132]
Human VR1 [1]
  h Binding % I (1 μM): 45%
Human VR1 [2]; [3]
  h % I (5 μM): 30%

## O=C(CCc1ccc(C(F)(F)F)cc1)Nc1ccc(-c2cccc(O)c2)c2ccccc12 [Cpd 85]
Human VR1 [1]
  h Binding % I (1 μM): 1%
Human VR1 [2]; [3]
  h % I (5 μM): 21%

## CC(C)(C)c1ccc(CCC(=O)Nc2ccc(-c3cccc(OC(F)(F)F)c3)cc2)cc1 [Cpd 26]
Human VR1 [1]
  h Binding % I (1 μM): 10%
Human VR1 [2]
  % Response Relative to EC80 of Capsaicin (12 μM): 65%

## CC(C)(C)c1ccc(CCC(=O)Nc2cccc(-c3cccc(CO)c3)c2)cc1 [Cpd 21]
Human VR1 [1]
  h Binding % I (1 μM): 1%
Human VR1 [2]
  % Response Relative to EC80 of Capsaicin (12 μM): 45%

## CN(C)C(=O)c1cccc(-c2ccc(NC(=O)CCc3ccc(C(C)(C)C)cc3)cc2)c1 [Cpd 39]
Human VR1 [1]
  h Binding % I (1 μM): 5%
Human VR1 [2]; [4]
  h % I (10 μM): 24%

## CC(C)(C)c1ccc(CCC(=O)Nc2ccccc2-c2cccc(CO)c2)cc1 [Cpd 19]
Human VR1 [1]
  h Binding % I (1 μM): 1%
Human VR1 [2]; [4]
  h % I (10 μM): 20%

## O=C(CCc1ccc(C(F)(F)F)cc1)Nc1ccc(-c2ccncc2)cc1 [Cpd 143]
Human VR1 [1]
  h Binding % I (1 μM): 44%
Human VR1 [2]
  % Response Relative to EC80 of Capsaicin (12 μM): 111%

## CC(C)(C)c1ccc(CCC(=O)Nc2cnc(-n3ccnc3)c(C(F)(F)F)c2)cc1 [Cpd 202, 3-(4-tert-Butyl-phenyl)-N-(6-imidazol-1-yl-5-trifluoromethyl-pyridin-3-yl)-propionamide]
Human VR1 [1]
  Ki: 212 nM
Human VR1 [2]
  IC50: 30.1 nM
Human VR1 [2]; [3]
  inhibition at 5 µM: 100%

## O=C(CCc1ccc(C(F)(F)F)cc1)Nc1ccc(-n2cnc3ccccc32)c(C(F)(F)F)c1 [Cpd 253]
Human VR1 [1]
  Ki: 44.3 nM
Human VR1 [2]
  IC50: 952 nM
Human VR1 [2]; [3]
  inhibition at 1 µM: 52%

## CC(C)(C)c1ccc(CCC(=O)Nc2ccc(-n3cnc(Cl)c3Cl)c(C(F)(F)F)c2)cc1 [Cpd 212, 3-(4-tert-Butyl-phenyl)-N-[4-(4,5-dichloro-imidazol-1-yl)-3-trifluoromethyl-phenyl]-propionamide]
Human VR1 [1]
  Ki: 5.9 nM
Human VR1 [2]
  IC50: 62.7 nM
Human VR1 [2]; [3]
  inhibition at 1 µM: 101%
  inhibition at 5 µM: 100%

## O=C(CCc1ccc(C(F)(F)F)cc1)Nc1cnc(-c2ccncc2)c(C(F)(F)F)c1 [Cpd 255]
Human VR1 [1]
  Ki: 329 nM
Human VR1 [2]; [3]
  inhibition at 5 µM: 100%

## CC(C)(C)c1ccc(CCC(=O)Nc2ccc(-c3cccc(C(N)=O)c3)cc2CO)cc1 [Cpd 69]
Human VR1 [1]
  h Binding % I (1 μM): 1%
Human VR1 [2]; [4]
  h % I (10 μM): 6%

## O=C(CCc1ccc(C(F)(F)F)cc1)Nc1ccc(-c2ccc(CO)cc2)c(C(F)(F)F)c1 [Cpd 223]
Human VR1 [1]
  Ki: 82.6 nM
Human VR1 [2]
  IC50: 142 nM
Human VR1 [2]; [3]
  h % I (5 μM): 100%

## CC(C)(C)c1ccc(CCC(=O)Nc2ccc(-c3ccc(CO)cc3)nc2)cc1 [Cpd 135]
Human VR1 [1]
  Ki: 31.2 nM
  inhibition at 1 µM: 90%
Human VR1 [2]
  Emax at 12 µM: 79%

## O=C(CCc1ccc(C(F)(F)F)cc1)Nc1ccc(-c2ccc(CO)cc2)nc1 [Cpd 150]
Human VR1 [1]
  Ki: 149 nM
  inhibition at 1 µM: 75%
Human VR1 [2]
  Emax at 12 µM: 79%

## Cc1cn(-c2ncc(NC(=O)CCc3ccc(C(F)(F)F)cc3)cc2C)cn1 [Cpd 226]
Human VR1 [1]
  Ki: 761 nM
Human VR1 [2]
  IC50: 164 nM
Human VR1 [2]; [3]
  inhibition at 1 µM: 83%

## CC(=O)Nc1cccc(-c2ccc(NC(=O)CCc3ccc(C(F)(F)F)cc3)cc2)c1 [Cpd 75]
Human VR1 [1]
  h Binding % I (1 μM): 6%
Human VR1 [2]
  % Response Relative to EC80 of Capsaicin (12 μM): 82%

## Cc1cn(-c2ccc(NC(=O)/C=C/c3ccc(C(F)(F)F)cn3)cc2C(F)(F)F)cn1 [Cpd 277]
Human VR1 [1]
  Ki: 140 nM
Human VR1 [2]; [3]
  inhibition at 1 µM: 38%

## CC(C)(C)c1ccc(CCC(=O)Nc2ccc(-c3cccc(C(N)=O)c3)c(C(=O)O)c2)cc1 [Cpd 72]
Human VR1 [1]
  h Binding % I (1 μM): 1%
Human VR1 [2]; [4]
  h % I (10 μM): 11%

## Cc1cc(NC(=O)CCc2ccc(C(C)(C)C)cc2)ccc1-c1ccc(CO)cc1 [Cpd 99]
Human VR1 [1]
  Ki: 29 nM
Human VR1 [2]
  IC50: 209 nM
Human VR1 [2]; [3]
  inhibition at 1 µM: 97%
  inhibition at 5 µM: 79%

## CC(C)(C)c1ccc(CCC(=O)Nc2cccc(-c3cccc(O)c3)c2)cc1 [Cpd 5]
Human VR1 [1]
  h Binding % I (1 μM): 4%
Human VR1 [2]; [4]
  h % I (10 μM): 35%

## Cc1cc(NC(=O)CCc2ccc(C(C)(C)C)cc2)cnc1-c1ccccc1O [Cpd 160, 3-(4-tert-butyl-phenyl)-N-[6-(2-hydroxy-phenyl)-5-methyl-pyridin-3-yl]-propionamide]
Human VR1 [1]
  inhibition at 1 µM: 101%
Human VR1 [2]
  IC50: 27 nM
Human VR1 [2]; [3]
  inhibition at 5 µM: 96%

## Cc1cc(NC(=O)CCc2ccc(C(C)(C)C)cc2)ccc1-c1cccnc1 [Cpd 179]
Human VR1 [1]
  Ki: 67 nM
Human VR1 [2]
  IC50: 266 nM
Human VR1 [2]; [3]
  inhibition at 1 µM: 81%
  inhibition at 5 µM: 100%

## CC(C)(C)c1ccc(CCC(=O)Nc2ccc(-c3cccc(NS(C)(=O)=O)c3)cc2)cc1 [Cpd 40]
Human VR1 [1]
  h Binding % I (1 μM): 41%
Human VR1 [2]
  % Response Relative to EC80 of Capsaicin (12 μM): 74%

## O=C(CCc1ccc(C(F)(F)F)cc1)Nc1ccc(-c2ccc(CO)cc2)cc1 [Cpd 80]
Human VR1 [1]
  Ki: 269 nM
  inhibition at 1 µM: 62%
Human VR1 [2]
  Emax at 12 µM: 77%

## O=C(CCc1ccc(C(F)(F)F)cc1)Nc1ccc(-c2cccc(O)c2)nc1 [Cpd 147]
Human VR1 [1]
  Ki: 319 nM
  inhibition at 1 µM: 62%
Human VR1 [2]
  Emax at 12 µM: 92%

## CC(C)(C)c1ccc(CCC(=O)Nc2ccc(-c3cccc(Cl)c3)cc2)cc1 [Cpd 14]
Human VR1 [1]
  Ki: 4620 nM
  inhibition at 1 µM: 55%
Human VR1 [2]
  Emax at 12 µM: 53%

## CC(C)(C)OC(=O)Nc1cccc(-c2ccc(NC(=O)CCc3ccc(C(C)(C)C)cc3)cc2)c1 [Cpd 41]
Human VR1 [1]
  Ki: 109 nM
  inhibition at 1 µM: 78.8%
Human VR1 [2]
  Emax at 12 µM: 43%
Human VR1 [2]; inhibition of capsaicin response, 10 μM, read-out: h % I (10 μM)
  inhibition at 10 µM: 30%

## CC1=NN(c2ccc(NC(=O)CCc3ccc(C(C)(C)C)cc3)cc2)C(=O)C1 [Cpd 201]
Human VR1 [1]
  h Binding % I (1 μM): 1%
Human VR1 [2]; [3]
  h % I (5 μM): 57%

## CC(C)(C)c1ccc(CCC(=O)Nc2ccccc2-c2cccc(O)c2)cc1 [Cpd 4]
Human VR1 [1]
  h Binding % I (1 μM): 1%
Human VR1 [2]; [4]
  h % I (10 μM): 35%

## CC(C)(C)c1ccc(CCC(=O)Nc2cccc(-c3ccncc3)c2)cc1 [Cpd 104]
Human VR1 [1]
  Ki: 180 nM
  inhibition at 1 µM: 73%
Human VR1 [2]
  Emax at 12 µM: 62%

## CC(C)(C)c1ccc(CCC(=O)Nc2ccc(-c3cccnc3)nc2)cc1 [Cpd 136]
Human VR1 [1]
  Ki: 103 nM
  inhibition at 1 µM: 84%
Human VR1 [2]
  Emax at 12 µM: 78%

## CC(C)(C)c1ccc(CCC(=O)Nc2ccccc2-c2ccncc2)cc1 [Cpd 103]
Human VR1 [1]
  inhibition at 1 µM: 1%
Human VR1 [2]
  IC50: 3520 nM

## Cc1cc(NC(=O)CCc2ccc(C(C)(C)C)cc2)cnc1-c1cccc([N+](=O)[O-])c1 [Cpd 260]
Human VR1 [1]
  Ki: 391 nM
Human VR1 [2]; [3]
  inhibition at 5 µM: 93%

## CC(C)(C)c1ccc(CCC(=O)Nc2ccc(-c3ccncc3)c(CO)c2)cc1 [Cpd 171]
Human VR1 [1]
  Ki: 292 nM
Human VR1 [2]
  Emax at 6 µM: 119%
Human VR1 [2]; [3]
  inhibition at 1 µM: 60%

## CC(C)(C)c1ccc(CCC(=O)Nc2ccc(-c3ccc(CO)cc3)c(CO)c2)cc1 [Cpd 96]
Human VR1 [1]
  Ki: 77 nM
Human VR1 [2]
  Emax at 6 µM: 65%
Human VR1 [2]; [3]
  inhibition at 1 µM: 91%

## CC(C)(C)c1ccc(CCC(=O)Nc2ccc(-c3ccncc3)c3ccccc23)cc1 [Cpd 153]
Human VR1 [1]
  h Binding % I (1 μM): 1%
Human VR1 [2]; [3]
  h % I (5 μM): 25%

## Cn1cnc(-c2ccc(NC(=O)CCc3ccc(C(C)(C)C)cc3)cc2)c1 [Cpd 190]
Human VR1 [1]
  h Binding % I (1 μM): 56%
Human VR1 [2]; [3]
  h % I (5 μM): 98%

## CC(C)(C)c1ccc(CCC(=O)Nc2ccc(-c3cccc(O)c3)nc2)cc1 [Cpd 129]
Human VR1 [1]
  Ki: 41 nM
  inhibition at 1 µM: 88%
Human VR1 [2]
  Emax at 12 µM: 126%
Human VR1 [2]; agonist-induced Ca2+ increase, read-out: h EC50
  EC50: 17 nM

## Cc1nc(-c2ccc(NC(=O)CCc3ccc(C(C)(C)C)cc3)cc2)cs1 [Cpd 195]
Human VR1 [1]
  h Binding % I (1 μM): 75%
Human VR1 [2]; [3]
  h % I (5 μM): 20%

## CC(C)(C)c1ccc(CCC(=O)Nc2ccc(-c3cccc(O)c3)cc2)s1 [Cpd 65, 3-(5-tert-butyl-thiophen-2-yl)-N-(3′-hydroxy-biphenyl-4-yl)-propionamide]
Human VR1 [1]
  Ki: 168 nM
  inhibition at 1 µM: 77%
Human VR1 [2]
  Emax at 12 µM: 87%

## CC(C)(C)OC(=O)NCc1cccc(-c2ccc(NC(=O)CCc3ccc(C(C)(C)C)cc3)cc2)c1 [Cpd 42]
Human VR1 [1]
  h Binding % I (1 μM): 1.1%
Human VR1 [2]; [4]
  h % I (10 μM): 9%
